Source: PubChem BioAssay (NCI)
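Growth conditions: 96-well plates. Treatment: test compound, 48 hours, 5 concentrations. Analysis: linear interpolation between bracketing concentrations; unreached endpoints set to highest concentration. At the GI50, growth is halved. TGI: total growth inhibition.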

Tests used:
Assay in all cases: growth of human tumour cells (NCI), 48 h
[1] = system: MDA-MB-435
[2] = system: U251 CNS
[3] = system: SF-539 CNS
[4] = system: SF-295 CNS
[5] = system: A498 renal
[6] = system: SF-268 CNS
[7] = system: SW-620 colon
[8] = system: EKVX NSCLC
[9] = system: NCI-H460 lung
[10] = system: M14 melanoma
[11] = system: NCI-H226 lung
[12] = system: HCC-2998 colon
[13] = system: CAKI-1 renal
[14] = system: DU-145 prostate
[15] = system: OVCAR-3 ovarian
[16] = system: LOX IMVI melanoma
[17] = system: UACC-257 melanoma
[18] = system: SNB-19 CNS
[19] = system: NCI/ADR-RES ovarian
[20] = system: SK-MEL-2 melanoma
[21] = system: HOP-62 NSCLC
[22] = system: RPMI-8226 leukemia
[23] = system: RXF 393 renal
[24] = system: UACC-62 melanoma
[25] = system: IGROV1 ovarian
[26] = system: SK-MEL-5 melanoma
[27] = system: NCI-H23 lung
[28] = system: HCT-15 colon
[29] = system: HOP-92 NSCLC
[30] = system: OVCAR-8 ovarian
[31] = system: HL-60(TB) leukemia
[32] = system: OVCAR-5 ovarian
[33] = system: T-47D breast
[34] = system: MDA-MB-231 breast
[35] = system: NCI-H522 lung
[36] = system: UO-31 renal
[37] = system: MCF7 breast
[38] = system: TK-10 renal
[39] = system: HCT-116 colon
[40] = system: SK-MEL-28 melanoma
[41] = system: A549 NSCLC
[42] = system: 786-0 renal
[43] = system: HS 578T breast
[44] = system: K-562 leukemia
[45] = system: KM12 colon
[46] = system: COLO 205 colon
[47] = system: MOLT-4 leukemia
[48] = system: SN12C renal
[49] = system: ACHN renal
[50] = system: HT29 colon
[51] = system: PC-3 prostate
[52] = system: OVCAR-4 ovarian
[53] = system: SR leukemia
[54] = system: CCRF-CEM leukemia
[55] = system: SNB-75 CNS
[56] = system: SK-OV-3 ovarian
[57] = system: MALME-3M melanoma

## COc1cc(/C=C2\CC3C4CC=C5C[C@@H](OC(C)=O)CC[C@]5(C)C4CC[C@]3(C)C2=O)ccc1OCCCn1ccnc1 (some centres undefined)
[1]
  GI50: 10.3 µM
  TGI: 26.6 µM
[2]
  GI50: 8.93 µM
  TGI: 15.9 µM
[3]
  GI50: 6.89 µM
  TGI: 14.2 µM
[4]
  GI50: 9.22 µM
  TGI: 22.3 µM
[5]
  GI50: 9.31 µM
  TGI: 21.6 µM
[6]
  GI50: 9.13 µM
  TGI: 21.5 µM
[7]
  GI50: 10.1 µM
  TGI: 23.3 µM
[8]
  GI50: 0.0741 µM
  TGI: 5.18 µM
[9]
  GI50: 9.32 µM
  TGI: 21.1 µM
[10]
  GI50: 9.28 µM
  TGI: 17.9 µM
[11]
  GI50: 8.26 µM
  TGI: 17.8 µM
[12]
  GI50: 14.6 µM
  TGI: 23 µM
[13]
  GI50: 5.81 µM
  TGI: 27.3 µM
[14]
  GI50: 1.31 µM
  TGI: 10.2 µM
[15]
  GI50: 9.79 µM
  TGI: 21.2 µM
[16]
  GI50: 8.63 µM
  TGI: 15.5 µM
[17]
  GI50: 10.4 µM
  TGI: 22.5 µM
[18]
  GI50: 20.2 µM
  TGI: > 50 µM
[19]
  GI50: 8.94 µM
  TGI: 19.5 µM
[20]
  GI50: 16.8 µM
  TGI: > 50 µM
[21]
  GI50: 8.83 µM
  TGI: 16.4 µM
[22]
  GI50: 9.66 µM
  TGI: 24.2 µM
[23]
  GI50: 13 µM
  TGI: 30.3 µM
[24]
  GI50: 8.4 µM
  TGI: 16.5 µM
[25]
  GI50: 13.7 µM
  TGI: 46.8 µM
[26]
  GI50: 9.39 µM
  TGI: 21.5 µM
[27]
  GI50: 8.35 µM
  TGI: 17.7 µM
[28]
  GI50: 9.52 µM
  TGI: 20.4 µM
[29]
  GI50: 25.4 µM
  TGI: > 50 µM
[30]
  GI50: 11 µM
  TGI: 21.6 µM
[31]
  GI50: 11.2 µM
  TGI: 21.8 µM
[32]
  GI50: 11.9 µM
  TGI: 40.9 µM
[33]
  GI50: 19.8 µM
  TGI: > 50 µM
[34]
  GI50: 8.05 µM
  TGI: 15.4 µM
[35]
  GI50: 19 µM
  TGI: > 50 µM
[36]
  GI50: 9.14 µM
  TGI: 19.9 µM
[37]
  GI50: 9.36 µM
  TGI: 21 µM
[38]
  GI50: 7.08 µM
  TGI: 17.3 µM
[39]
  GI50: 13.4 µM
  TGI: 29.6 µM
[40]
  GI50: 16 µM
  TGI: > 50 µM
[41]
  GI50: 13 µM
  TGI: 33.9 µM
[42]
  GI50: 8.87 µM
  TGI: 16 µM
[43]
  GI50: 8.26 µM
  TGI: 21.3 µM
[44]
  GI50: 9.69 µM
  TGI: 24.7 µM
[45]
  GI50: 8.75 µM
  TGI: 16.2 µM
[46]
  GI50: 20.7 µM
  TGI: > 50 µM
[47]
  GI50: 20.5 µM
  TGI: > 50 µM
[48]
  GI50: 8.99 µM
  TGI: 16.6 µM
[49]
  GI50: 9.81 µM
  TGI: 21 µM
[50]
  GI50: 16 µM
  TGI: > 50 µM
[51]
  GI50: 18 µM
  TGI: 42.1 µM

## COc1cc(OC)c(OC)cc1/C=C\c1nccc2ccccc12
[2]
  TGI: 65.5 µM
[4]
  TGI: 56.1 µM
[6]
  TGI: 58.8 µM
[7]
  TGI: 83.4 µM
[52]
  TGI: > 100 µM
[8]
  TGI: 89.7 µM
[10]
  TGI: 31.1 µM
[53]
  TGI: > 100 µM
[13]
  TGI: 68.3 µM
[14]
  TGI: 34.4 µM
[18]
  TGI: 61.4 µM
[19]
  TGI: > 100 µM
[22]
  TGI: 59.2 µM
[23]
  TGI: 39 µM
[25]
  TGI: 87 µM
[26]
  TGI: 29.5 µM
[27]
  TGI: 51.7 µM
[29]
  TGI: 32.9 µM
[30]
  TGI: 78.9 µM
[31]
  TGI: 73.2 µM
[32]
  TGI: 98.3 µM
[33]
  TGI: 80.4 µM
[36]
  TGI: 64.1 µM
[38]
  TGI: 88.9 µM
[39]
  TGI: 33.4 µM
[40]
  TGI: 74.7 µM
[41]
  TGI: > 100 µM
[43]
  TGI: 94.3 µM
[44]
  TGI: > 100 µM
[54]
  TGI: > 100 µM
[45]
  TGI: 33.5 µM
[55]
  TGI: 50.6 µM
[56]
  TGI: > 100 µM
[46]
  TGI: 38 µM
[57]
  TGI: > 100 µM
[47]
  TGI: 95.8 µM
[51]
  TGI: 60.2 µM
